From paper PMC9387934, “Randomized single oral dose phase 1 study of safety, tolerability, and pharmacokinetics of Iminosugar UV-4 Hydrochloride (UV-4B) in healthy subjects” (PLoS Neglected Tropical Diseases, 2022)
Several values for one entry are separate records, joined by “and”; a condition that tells them apart may be missing. Equal entries are not always repeated.

Test: Phase 1a single ascending dose study: UV-4 plasma concentrations and PK parameters (LC-MS/MS, noncompartmental)
Assay type: in vivo
Details: for CONCENTRATION UV4: human plasma
Method: UV-4 ((2R,3R,4R,5S)-2-(hydroxymethyl)-1-(9-methoxynonyl)piperidine-3,4,5-triol, also called N-(9’-methoxynonyl)-1-deoxynojirimycin, or MON-DNJ) hydrochloride was evaluated in a first-in-human, randomized, single-center, double-blind, placebo-controlled, parallel group, single ascending dose Phase 1a clinical trial in healthy subjects (Figs 1 and 2, ClinicalTrials.gov Identifier NCT02061358 https://clinicaltrials.gov/ct2/show/NCT02061358). The primary objective was to determine the safety and tolerability of a single-ascending oral dose of UV-4 hydrochloride (Fig 3). […] The secondary objective was to determine PK parameters describing absorption and elimination of UV-4 following a single oral dose of UV-4 hydrochloride. Eight cohorts of eight subjects each were enrolled and completed the study. In each cohort, six subjects received UV-4 as the hydrochloride; two received placebo. Subjects were screened against study eligibility criteria up to four weeks (Days -28 to -2) before admission to the clinic (Day -1). Dosing was performed on an inpatient basis. Subjects remained in clinic for 48 hours post-dosing for PK sample collection and safety assessments and were discharged from the clinic on Day 3. Subjects returned to the clinic on Day 4 for additional safety assessments, then again on Day 9 ± 1 for a final follow-up visit.
Eligible subjects were healthy males and females, age 18–45 years, with a body mass index between 18 and 30 kg/m^2 inclusive and a minimum body weight of 60 kg. Subjects were considered healthy based on medical history, physical exam, vital signs, 12-lead electrocardiogram (ECG), clinical laboratory tests (hematology, blood chemistry, urinalysis), viral serology, and drug and alcohol screening. Male and female subjects of childbearing potential were required to use adequate contraception over the course of the clinical trial. […] Only subjects who met all inclusion and none of the exclusion criteria prior to administration of the investigational product were enrolled into the study (no exemptions were granted). A total of 64 subjects were enrolled (eight cohorts of eight subjects each). In each of the eight cohorts, six subjects were randomized to receive a single dose of UV-4 (3 to 1000 mg, depending on cohort) as the hydrochloride salt, and two subjects to receive placebo. Cohort size of six active subjects was based on analysis that increasing cohort size above six in a first-in-human study gains little in the ability to observe a drug induced event, and results in observing more events that are not related to study drug. Two of the eight subjects in each cohort (sentinel subjects; one active and one placebo) received their doses at least 48 h before the remaining subjects in each cohort.
On each day of use, bulk drug substance (UV-4B for solubilization, SAI Life Sciences Ltd. Telangana, India) was removed from a single-use container, weighed at the study center, and solubilized in 20 mL sterile water for injection (SWFI) (Hospira Inc. Illinois, United States of America). Weight of solid drug substance was converted to dose of UV-4 by applying purity and salt correction factor per pharmacy manual when preparing the dosing solution. UV-4B solution was administered orally with 10 mL of taste-masking agent, OraSweet-SF (Paddock Laboratories LLC, Minneapolis, United States of America) in a total volume of 30 mL, to assist in maintaining study blinding. Placebo was SWFI (20 mL) plus OraSweet-SF (10 mL). Concentrations and doses were calculated and expressed as the active free base form, UV-4. This methodology is consistent with USP<1121>, which recommends that the strength of a drug product or preparation is expressed in terms of the active moiety. Following consumption of active or placebo solution, the dosing container was rinsed with 50 mL of tap water also consumed by subjects. […]

## COCCCCCCCCCN1C[C@H](O)[C@@H](O)[C@H](O)[C@H]1CO [UV4]
Cohort 7, nominal day 1, nominal hour 0, individual subjects
  CONCENTRATION UV4 in human plasma: <LLOQ (0.500) ng/mL
Cohort 7, nominal day 1, nominal hour 0, subject with all samples <LLOQ
  CONCENTRATION UV4 in human plasma: <LLOQ (0.500) ng/mL
Cohort 7, nominal day 1, nominal hour 0.5, individual subjects
  CONCENTRATION UV4 in human plasma: 8420 ng/mL and 5960 ng/mL and 5510 ng/mL and 13200 ng/mL and 9650 ng/mL
Cohort 7, nominal day 1, nominal hour 0.5, subject with all samples <LLOQ
  CONCENTRATION UV4 in human plasma: <LLOQ (0.500) ng/mL
Cohort 7, nominal day 1, nominal hour 1, individual subjects
  CONCENTRATION UV4 in human plasma: 8390 ng/mL and 11600 ng/mL and 8700 ng/mL and 11700 ng/mL and 8870 ng/mL
Cohort 7, nominal day 1, nominal hour 1, subject with all samples <LLOQ
  CONCENTRATION UV4 in human plasma: <LLOQ (0.500) ng/mL
Cohort 7, nominal day 1, nominal hour 1.5, individual subjects
  CONCENTRATION UV4 in human plasma: 7250 ng/mL and 7490 ng/mL and 5760 ng/mL and 7510 ng/mL and 6190 ng/mL
Cohort 7, nominal day 1, nominal hour 1.5, subject with all samples <LLOQ
  CONCENTRATION UV4 in human plasma: <LLOQ (0.500) ng/mL
Cohort 7, nominal day 1, nominal hour 2, individual subjects
  CONCENTRATION UV4 in human plasma: 5560 ng/mL and 6260 ng/mL and 4660 ng/mL and 6160 ng/mL and 5490 ng/mL
Cohort 7, nominal day 1, nominal hour 2, subject with all samples <LLOQ
  CONCENTRATION UV4 in human plasma: <LLOQ (0.500) ng/mL
Cohort 7, nominal day 1, nominal hour 2.5, individual subjects
  CONCENTRATION UV4 in human plasma: 4270 ng/mL and 6030 ng/mL and 3950 ng/mL and 4710 ng/mL and 4800 ng/mL
Cohort 7, nominal day 1, nominal hour 2.5, subject with all samples <LLOQ
  CONCENTRATION UV4 in human plasma: <LLOQ (0.500) ng/mL
Cohort 7, nominal day 1, nominal hour 3, individual subjects
  CONCENTRATION UV4 in human plasma: 3650 ng/mL and 5660 ng/mL and 3610 ng/mL and 4080 ng/mL and 4540 ng/mL
Cohort 7, nominal day 1, nominal hour 3, subject with all samples <LLOQ
  CONCENTRATION UV4 in human plasma: <LLOQ (0.500) ng/mL
Cohort 7, nominal day 1, nominal hour 4, individual subjects
  CONCENTRATION UV4 in human plasma: 2230 ng/mL and 3760 ng/mL and 2630 ng/mL and 3120 ng/mL and 3370 ng/mL
Cohort 7, nominal day 1, nominal hour 4, subject with all samples <LLOQ
  CONCENTRATION UV4 in human plasma: <LLOQ (0.500) ng/mL
Cohort 7, nominal day 1, nominal hour 6, individual subjects
  CONCENTRATION UV4 in human plasma: 1120 ng/mL and 1930 ng/mL and 1770 ng/mL and 1610 ng/mL and 1730 ng/mL
Cohort 7, nominal day 1, nominal hour 6, subject with all samples <LLOQ
  CONCENTRATION UV4 in human plasma: <LLOQ (0.500) ng/mL
Cohort 7, nominal day 1, nominal hour 9, individual subjects
  CONCENTRATION UV4 in human plasma: 429 ng/mL and 642 ng/mL and 790 ng/mL and 588 ng/mL and 656 ng/mL
Cohort 7, nominal day 1, nominal hour 9, subject with all samples <LLOQ
  CONCENTRATION UV4 in human plasma: <LLOQ (0.500) ng/mL
Cohort 7, nominal day 1, nominal hour 12, individual subjects
  CONCENTRATION UV4 in human plasma: 184 ng/mL and 254 ng/mL and 352 ng/mL and 266 ng/mL and 301 ng/mL
Cohort 7, nominal day 1, nominal hour 12, subject with all samples <LLOQ
  CONCENTRATION UV4 in human plasma: <LLOQ (0.500) ng/mL
Cohort 7, nominal day 1, nominal hour 18, individual subjects
  CONCENTRATION UV4 in human plasma: 47.6 ng/mL and 69.6 ng/mL and 82.9 ng/mL and 80.3 ng/mL and 78.0 ng/mL
Cohort 7, nominal day 1, nominal hour 18, subject with all samples <LLOQ
  CONCENTRATION UV4 in human plasma: <LLOQ (0.500) ng/mL
Cohort 7, nominal day 2, nominal hour 24, individual subjects
  CONCENTRATION UV4 in human plasma: 58.7 ng/mL and 27.8 ng/mL and 38.9 ng/mL and 46.4 ng/mL and 45.6 ng/mL and 40.8 ng/mL
Cohort 7, nominal day 2, nominal hour 24, subject with all samples <LLOQ
  CONCENTRATION UV4 in human plasma: <LLOQ (0.500) ng/mL
Cohort 7, nominal day 2, nominal hour 36, individual subjects
  CONCENTRATION UV4 in human plasma: 17.4 ng/mL and 8.03 ng/mL and 10.9 ng/mL and 14.8 ng/mL and 12.7 ng/mL
Cohort 7, nominal day 2, nominal hour 36, subject with all samples <LLOQ
  CONCENTRATION UV4 in human plasma: <LLOQ (0.500) ng/mL
Cohort 7, nominal day 3, nominal hour 48, individual subjects
  CONCENTRATION UV4 in human plasma: 7.94 ng/mL and 3.58 ng/mL and 4.75 ng/mL and 6.57 ng/mL and 8.76 ng/mL and 6.60 ng/mL
Cohort 7, nominal day 3, nominal hour 48, subject with all samples <LLOQ
  CONCENTRATION UV4 in human plasma: <LLOQ (0.500) ng/mL
Cohort 8, nominal day 1, nominal hour 0, subjects with all samples <LLOQ
  CONCENTRATION UV4 in human plasma: <LLOQ (0.500) ng/mL
Cohort 8, nominal day 1, nominal hour 0.5, subjects with all samples <LLOQ
  CONCENTRATION UV4 in human plasma: <LLOQ (0.500) ng/mL
Cohort 8, nominal day 1, nominal hour 1, subjects with all samples <LLOQ
  CONCENTRATION UV4 in human plasma: <LLOQ (0.500) ng/mL
Cohort 8, nominal day 1, nominal hour 1.5, subjects with all samples <LLOQ
  CONCENTRATION UV4 in human plasma: <LLOQ (0.500) ng/mL
Cohort 8, nominal day 1, nominal hour 2, subjects with all samples <LLOQ
  CONCENTRATION UV4 in human plasma: <LLOQ (0.500) ng/mL
Cohort 8, nominal day 1, nominal hour 2.5, subjects with all samples <LLOQ
  CONCENTRATION UV4 in human plasma: <LLOQ (0.500) ng/mL
Cohort 8, nominal day 1, nominal hour 3, subjects with all samples <LLOQ
  CONCENTRATION UV4 in human plasma: <LLOQ (0.500) ng/mL
Cohort 8, nominal day 1, nominal hour 4, subjects with all samples <LLOQ
  CONCENTRATION UV4 in human plasma: <LLOQ (0.500) ng/mL
Cohort 8, nominal day 1, nominal hour 6, subjects with all samples <LLOQ
  CONCENTRATION UV4 in human plasma: <LLOQ (0.500) ng/mL
Cohort 8, nominal day 1, nominal hour 9, subjects with all samples <LLOQ
  CONCENTRATION UV4 in human plasma: <LLOQ (0.500) ng/mL
Cohort 8, nominal day 1, nominal hour 12, subjects with all samples <LLOQ
  CONCENTRATION UV4 in human plasma: <LLOQ (0.500) ng/mL
Cohort 8, nominal day 1, nominal hour 18, subjects with all samples <LLOQ
  CONCENTRATION UV4 in human plasma: <LLOQ (0.500) ng/mL
Cohort 1, nominal day 1, nominal hour 0
  CONCENTRATION UV4: <LLOQ (0.500) ng/mL
Cohort 1, nominal day 3, nominal hour 48
  CONCENTRATION UV4: <LLOQ (0.500) ng/mL
